Measurements published in PubChem BioAssay (NCI).
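Compound exposure: 48 hours, 5 concentrations, 96-well plates. GI50 = concentration required for 50% inhibition of growth. TGI denotes the concentration required for complete inhibition of growth.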

Legend:
Assay in all cases: NCI tumour cell line growth inhibition, 48 h
[1] = system: DMS 273 small cell lung
[2] = system: RXF-631 renal
[3] = system: M19-MEL melanoma
[4] = system: KM20L2 colon
[5] = system: XF 498 CNS
[6] = system: SNB-78 CNS
[7] = system: DMS 114 small cell lung
[8] = system: MDA-N
[9] = system: SN12K1 renal
[10] = system: P388/ADR leukemia
[11] = system: P388 leukemia
[12] = system: MDA-MB-435

| Structure (SMILES) | TGI [1] | TGI [2] | TGI [3] | TGI [4] | TGI [5] | TGI [6] | TGI [7] | GI50 [8] | TGI [8] | TGI [9] | TGI [10] | TGI [11] | GI50 [4] | GI50 [12] | TGI [12] | GI50 [7] |
| --- | --- | --- | --- | --- | --- | --- | --- | --- | --- | --- | --- | --- | --- | --- | --- | --- |
| COc1ccc2c(c1)c1c3n2CCNN=C3CCC1 | > 100 µM | > 100 µM | > 100 µM | > 100 µM | > 100 µM | > 94.3 µM | > 100 µM |  |  |  |  |  |  |  |  |  |
| Cc1ccc(/C=N/NS(=O)(=O)c2ccccc2)c(C)c1 | > 100 µM | > 100 µM | > 100 µM | > 100 µM | > 100 µM | > 100 µM | > 100 µM |  |  |  |  |  |  |  |  |  |
| CC(/C=N/N=C(N)N)=N\N=C(N)N | 650 µM |  |  | 411 µM | 12 µM | 147 µM | 171 µM | 26.8 µM | 354 µM | 30.1 µM | 352 µM | 39.8 µM | 47.6 µM | 23 µM | 452 µM | 95.4 µM |
